Experimental data published in BindingDB's records for doi:10.1016/0960-894X(95)00059-3 (1995).
pIC50: −log10 of the molar value.

What was measured:
[1] = Inhibitory activity against HIV-1 RT with poly.rC-oligo.dG template primer
[2] = biological target: Reverse transcriptase (Human immunodeficiency virus 2); assay: Inhibitory activity against HIV-2 reverse transcriptase

O=S(=O)(c1ccccc1)c1c(C2=NCCCN2)[nH]c2ccc(Cl)cc12 [3-Benzenesulfonyl-5-chloro-2-(1,4,5,6-tetrahydro-pyrimidin-2-yl)-1H-indole]
pIC50 [1]: 5.64

O=S(=O)(c1ccccc1)c1c(-c2nc3c([nH]2)CCCC3)[nH]c2ccc(Cl)cc12 [2-(3-Benzenesulfonyl-5-chloro-1H-indol-2-yl)-4,5,6,7-tetrahydro-1H-benzoimidazole]
pIC50 [1]: 8.09

CC1(C)CN=C(c2[nH]c3ccc(Cl)cc3c2S(=O)(=O)c2ccccc2)N1 [3-Benzenesulfonyl-5-chloro-2-(5,5-dimethyl-4,5-dihydro-1H-imidazol-2-yl)-1H-indole]
pIC50 [1]: 7.30

O=S(=O)(c1ccccc1)c1c(-n2ccnc2)[nH]c2ccc(Cl)cc12 [3-Benzenesulfonyl-5-chloro-2-imidazol-1-yl-1H-indole]
pIC50 [1]: 5.62

O=S(=O)(c1ccccc1)c1c(C2=NCCS2)[nH]c2ccc(Cl)cc12 [3-Benzenesulfonyl-5-chloro-2-(4,5-dihydro-thiazol-2-yl)-1H-indole]
pIC50 [2]: < 3.52
pIC50 [1]: 7.77

O=S(=O)(c1ccccc1)c1c(C2=N[C@H]3CCCC[C@@H]3N2)[nH]c2ccc(Cl)cc12 [(3aS,7aS)-2-(3-Benzenesulfonyl-5-chloro-1H-indol-2-yl)-3a,4,5,6,7,7a-hexahydro-1H-benzoimidazole]
pIC50 [1]: 7.54

CCc1nc(-c2[nH]c3ccc(Cl)cc3c2S(=O)(=O)c2ccccc2)[nH]c1CC [3-Benzenesulfonyl-5-chloro-2-(4,5-diethyl-1H-imidazol-2-yl)-1H-indole]
pIC50 [1]: 8.00

Cc1nc(-c2[nH]c3ccc(Cl)cc3c2S(=O)(=O)c2ccccc2)[nH]c1C [3-Benzenesulfonyl-5-chloro-2-(4,5-dimethyl-1H-imidazol-2-yl)-1H-indole]
pIC50 [2]: < 3.52
pIC50 [1]: 8.29
